Bounds are passed on as bounds.

The assay concerns the target T1, ULK1 (Homo sapiens, UniProt O75385).
T1 sequence (O75385 1-1050): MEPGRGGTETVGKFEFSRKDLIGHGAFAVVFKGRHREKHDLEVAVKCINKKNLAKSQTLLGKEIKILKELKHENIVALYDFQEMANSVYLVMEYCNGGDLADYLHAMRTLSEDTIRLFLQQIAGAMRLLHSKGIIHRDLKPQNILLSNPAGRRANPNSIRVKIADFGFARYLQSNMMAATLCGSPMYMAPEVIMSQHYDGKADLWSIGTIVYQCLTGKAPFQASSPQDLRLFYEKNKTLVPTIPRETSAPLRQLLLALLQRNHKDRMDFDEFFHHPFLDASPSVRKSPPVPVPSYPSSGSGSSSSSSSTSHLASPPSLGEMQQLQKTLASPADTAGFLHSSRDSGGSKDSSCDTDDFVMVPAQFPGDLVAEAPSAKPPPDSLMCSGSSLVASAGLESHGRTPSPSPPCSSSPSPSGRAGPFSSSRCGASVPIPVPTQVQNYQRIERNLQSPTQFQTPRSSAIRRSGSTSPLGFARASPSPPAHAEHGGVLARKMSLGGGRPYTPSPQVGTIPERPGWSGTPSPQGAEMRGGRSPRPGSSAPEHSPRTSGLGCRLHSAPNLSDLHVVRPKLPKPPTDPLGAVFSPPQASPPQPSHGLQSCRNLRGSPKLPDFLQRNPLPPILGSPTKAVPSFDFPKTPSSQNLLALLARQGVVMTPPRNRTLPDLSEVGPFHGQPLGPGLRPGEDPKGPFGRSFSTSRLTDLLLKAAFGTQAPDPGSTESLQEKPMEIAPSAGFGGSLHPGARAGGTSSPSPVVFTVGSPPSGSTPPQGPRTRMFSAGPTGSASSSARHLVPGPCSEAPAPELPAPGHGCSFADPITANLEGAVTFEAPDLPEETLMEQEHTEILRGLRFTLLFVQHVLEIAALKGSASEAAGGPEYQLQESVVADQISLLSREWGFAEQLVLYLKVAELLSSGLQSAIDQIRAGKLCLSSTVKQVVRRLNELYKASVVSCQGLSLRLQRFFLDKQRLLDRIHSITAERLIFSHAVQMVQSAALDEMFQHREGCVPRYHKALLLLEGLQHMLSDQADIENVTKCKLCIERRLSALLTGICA
The assay can be described thus: ULK1 inhibition assay. The following applies: * = tested as a mixture of regioisomers. The assay is classed as biochemical.
Turning to `CNC(=O)c1ccccc1Oc1nc(Nc2cc(Br)ccc2C)ncc1C(F)(F)F` [Compound 100], the concentration for half-maximal inhibition (IC50) is above 2000 nM.

Regarding `CNC(=O)c1ccccc1Oc1nc(Nc2cc(OC)c(OC)c(OC)c2)ncc1Cl` [Compound 234a], the IC50 is above 2000 nM.

Turning to `O=C1CCc2cc(Nc3ncc(C(F)(F)F)c(Nc4ccc5[nH]ncc5c4)n3)ccc2N1` [Compound 185], the IC50 was below 200 nM.

`O=c1[nH][nH]c(=O)c2cc(Nc3ncc(C(F)(F)F)c(NC4CC4)n3)ccc12` [Compound 334]: the IC50 was below 200 nM.

On to `O=C1CCc2cc(Nc3ncc(Br)c(Nc4ccccn4)n3)ccc2N1` [Compound 155], for which the IC50 is below 200 nM.

Turning to `COc1cc(Nc2ncc(Br)c(Oc3cccc4ccncc34)n2)cc(OC)c1OC` [Compound 351], the half-maximal inhibitory concentration (IC50) is above 2000 nM.

Turning to `CNC(=O)c1ccccc1Nc1nc(Nc2ccc3c(c2)OCCO3)ncc1Cl` [Compound 51], the IC50 is below 200 nM.

Consider `CCN1CCOc2cc(Nc3ncc(C(F)(F)F)c(NC4CC4)n3)cnc21` [Compound 344], for which the 50% inhibitory concentration (IC50) is below 200 nM.

With `O=C(Nc1ccc(Nc2ncc(C(F)(F)F)c(NC3CC3)n2)cc1)C1CC1` [Compound 312], the half-inhibitory concentration (IC50) was below 200 nM.

For `FC(F)(F)c1cnc(Nc2ccc3c(c2)OCO3)nc1N1CCC1` [Compound 166b], the IC50 is below 200 nM.

Consider `CNC(=O)c1ccccc1Nc1nc(Nc2ccc3[nH]ccc3c2)ncc1Br` [Compound 23], for which the IC50 is below 200 nM.

Consider `OC1Nc2ccc(Nc3ncc(C(F)(F)F)c(NC4CC4)n3)cc2O1` (stereo not drawn) [Compound 208b], for which the half-inhibitory concentration (IC50) was below 200 nM.

In the case of `COc1cc(Nc2ncc(Br)c(Oc3cccc4c3N(C(C)=O)CCC4)n2)cc(OC)c1OC` [Compound 335a], the half-maximal inhibitory concentration (IC50) is above 2000 nM.

Take `CNC(=O)c1ccccc1Oc1ccnc(Nc2cc(OC)c(OC)c(OC)c2)n1` [Compound 239]: the IC50 was above 2000 nM.

For `N#Cc1cnc(NC2CC2)nc1Nc1ccc2c(c1)CCC(=O)N2` [Compound 287], the IC50 was above 2000 nM.

Regarding `FC(F)(F)c1cnc(NC2CCC2)nc1Nc1cnc2[nH]ccc2c1` [Compound 161b], the IC50 was below 200 nM.

With `FC(F)(F)c1cnc(NCc2cccc3ccccc23)nc1NC1CC1` [Compound 262], the IC50 was above 2000 nM.

On to `O=c1[nH]c2ccc(Nc3ncc(Br)c(NC4CC4)n3)cc2[nH]1` [Compound 236], for which the IC50 was below 200 nM.

Consider `COc1cccc(Nc2nc(Nc3cc4ccccc4cc3O)ncc2C(F)(F)F)c1` [137*], for which the half-inhibitory concentration (IC50) fell in the range of 200 to 2000 nM.

With `COc1cc(Nc2ncc(Br)c(Oc3ccccc3C3=NC(C)(C)CO3)n2)cc(OC)c1OC` [Compound 355], the half-inhibitory concentration (IC50) is above 2000 nM.

On to `COc1cc(Nc2ncc(Br)c(Oc3ccccc3)n2)cc(OC)c1OC` [Compound 266], for which the IC50 was below 200 nM.

In the case of `COc1cccc(Nc2nc(Nc3ccc4c(c3)CCC(=O)N4)ncc2C(F)(F)F)c1` [Compound 119], the 50% inhibitory concentration (IC50) was below 200 nM.

For `COc1cc(N2CCOCC2)ccc1Nc1nc(Nc2ccc3c(c2)CCC(=O)N3)ncc1C(F)(F)F` [Compound 123a], the IC50 is below 200 nM.

`COc1cccc(Nc2ncc(C(F)(F)F)c(O)n2)c1OC` [Compound 115b]: the IC50 was above 2000 nM.

Regarding `FC(F)(F)c1cnc(Nc2cccc(Cl)c2Cl)nc1Nc1ccc2c(c1)OCO2` [147*], the IC50 is above 2000 nM.

Take `FC(F)(F)c1cnc(Nc2cncnc2)nc1NC1CC1` [Compound 203]: the IC50 was below 200 nM.

For `CNc1nc(Nc2cnc3[nH]ccc3c2)ncc1C(F)(F)F` [Compound 182a], the IC50 was below 200 nM.

Consider `COc1cccc(Nc2nc(Nc3ccc(OC(F)(F)F)c(Cl)c3)ncc2C(F)(F)F)c1` [136*], for which the IC50 is above 2000 nM.

Regarding `O=C1CCc2cc(Nc3ncc(C(F)(F)F)c(OC4CCC4)n3)ccc2N1` [Compound 175], the IC50 was below 200 nM.

As to `CNC(=O)c1ccccc1Nc1nc(Nc2cc3c(cc2C)OCO3)ncc1Cl` [Compound 57], the IC50 was below 200 nM.

`FC(F)(F)c1cnc(Nc2ccon2)nc1NC1CC1` [Compound 214a]: the half-inhibitory concentration (IC50) fell in the range of 200 to 2000 nM.

On to `FC(F)(F)c1cnc(Nc2ccc3c(c2)OCCO3)nc1NC1CC1` [Compound 158a], for which the half-inhibitory concentration (IC50) was below 200 nM.

Consider `O=C1CCc2cc(Nc3ncc(C(F)(F)F)c(Nc4ccc5c(c4)CCC(=O)N5)n3)ccc2N1` [Compound 120c], for which the 50% inhibitory concentration (IC50) was below 200 nM.

In the case of `CNC(=O)c1ccccc1Nc1nc(Nc2cc(N3CCOCC3)cc(N3CCOCC3)c2)ncc1C(F)(F)F` [Compound 90], the IC50 is below 200 nM.

For the compound `O=C1CCc2cc(Nc3ncc(C(F)(F)F)c(NC4CNC4)n3)ccc2N1` [Compound 198a], the IC50 was 200 to 2000 nM.

With `Nc1nc(Nc2cnc3[nH]ccc3c2)ncc1C(F)(F)F` [Compound 217], the concentration for half-maximal inhibition (IC50) is above 2000 nM.

`O=C(C1CC1)N(C(=O)C1CC1)c1ccc(Nc2ncc(C(F)(F)F)c(NC3CC3)n2)cc1` [Compound 311]: the IC50 is below 200 nM.

Regarding `COc1cc(Nc2ncc(Br)c(Oc3ccccc3C(N)=O)n2)cc(OC)c1OC` [Compound 249], the IC50 is below 200 nM.

Regarding `CNC(=O)c1ccccc1Oc1nc(Nc2cc(OC)c(OC)c(OC)c2)ncc1C(F)(F)F` [Compound 92], the half-maximal inhibitory concentration (IC50) is below 200 nM.

As for `FC(F)(F)c1cnc(Nc2ccc3c(c2)CCC3)nc1Nc1ccc2c(c1)OCO2` [140*], the IC50 was below 200 nM.

Consider `CNC(=O)c1ccccc1Oc1nc(Nc2ccccc2OC)ncc1C(F)(F)F` [Compound 103], for which the IC50 was above 2000 nM.

As to `CNC(=O)c1ccccc1Nc1nc(Nc2cc(OC)c(OC)c(OC)c2)ncc1/C=C/c1ccccc1` [Compound 71], the IC50 is below 200 nM.

In the case of `O=C1CCc2cc(Nc3nc(NC4CC4)c4ccccc4n3)ccc2N1` [Compound 263], the IC50 was above 2000 nM.

In the case of `CNC(=O)c1ccccc1Nc1nc(Nc2ccc(N3CCOCC3)cc2OC)ncc1Cl` [Compound 12], the 50% inhibitory concentration (IC50) is below 200 nM.

`CNC(=O)c1ccccc1Oc1nc(Nc2ccc(OC)cc2)ncc1C(F)(F)F` [Compound 105a]: the IC50 is above 2000 nM.

Regarding `COc1cccc(Nc2nc(Nc3ccc4c(c3)OCCO4)ncc2C(F)(F)F)c1` [Compound 133], the IC50 is below 200 nM.

`COc1ccc(Nc2ncc(C(F)(F)F)c(O)n2)cc1` [Compound 105b]: the half-inhibitory concentration (IC50) is above 2000 nM.

Take `COCc1ccccc1Oc1nc(Nc2cc(OC)c(OC)c(OC)c2)ncc1Br` [Compound 274]: the IC50 was below 200 nM.

`CNC(=O)c1ccccc1Oc1nc(Nc2cc(OC)ccc2C)ncc1C(F)(F)F` [Compound 101]: the half-inhibitory concentration (IC50) was above 2000 nM.

Regarding `COc1cc(Nc2ncc(Br)c(Oc3ccccc3-c3nc(C)co3)n2)cc(OC)c1OC` [Compound 290], the half-maximal inhibitory concentration (IC50) was above 2000 nM.

In the case of `Nc1nc(Nc2ccc3c(c2)CCC(=O)N3)ncc1C(F)(F)F` [Compound 209], the IC50 was in the range of 200 to 2000 nM.

Take `CNC(=O)c1ccccc1Nc1nc(Nc2cc(OC)c(OC)c(OC)c2)ncc1-c1ccccc1` [Compound 73]: the IC50 was below 200 nM.

Regarding `O=C1CCc2cc(Nc3ncc(C(F)(F)F)c(NC4COC4)n3)ccc2N1` [Compound 193], the IC50 is above 2000 nM.

Regarding `CNC(=O)c1ccccc1Nc1nc(Nc2cc(OC)ccc2C)ncc1Cl` [Compound 16], the IC50 is below 200 nM.

In the case of `CNC(=O)c1ccccc1Oc1nc(Nc2cc(OC)ccc2C)ncc1Br` [Compound 170], the 50% inhibitory concentration (IC50) was above 2000 nM.

As for `COc1cc(Nc2ncc(Br)c(Nc3ccccc3O)n2)cc(OC)c1OC` [Compound 317], the IC50 was below 200 nM.

For the compound `O=C1CCc2cc(Nc3ncc(C(F)(F)F)c(Nc4ccccc4CO)n3)ccc2N1` [Compound 347], the IC50 is below 200 nM.

As to `CC(=O)Nc1ccc(Nc2nc(Nc3ccc4c(c3)CCC(=O)N4)ncc2C(F)(F)F)cc1` [Compound 132], the IC50 was below 200 nM.

As to `CCC(=O)c1ccccc1Oc1nc(Nc2cc(OC)c(OC)c(OC)c2)ncc1Br` [Compound 260], the half-inhibitory concentration (IC50) is below 200 nM.

As for `COc1cc(Nc2ncc(Br)c(Oc3ccccc3NC(=O)C3CC3)n2)cc(OC)c1OC` [Compound 281], the IC50 is below 200 nM.

With `FC(F)(F)c1cnc(Nc2ccc3c(c2)OCO3)nc1Nc1ccc2c(c1)OCO2` [Compound 124c], the IC50 is below 200 nM.

Regarding `FC(F)(F)c1cnc(Nc2cccc(Oc3ccccc3)c2)nc1Nc1ccc2c(c1)OCO2` [149*], the IC50 was above 2000 nM.

As to `COc1cc(Nc2ncc(Br)c(Oc3ccccc3O)n2)cc(OC)c1OC` [Compound 336], the IC50 is above 2000 nM.

Take `Cc1ccc(Nc2nc(Nc3ccc4c(c3)CCC(=O)N4)ncc2C(F)(F)F)cc1C` [Compound 125]: the concentration for half-maximal inhibition (IC50) was below 200 nM.

As for `COc1cc(N2CCOCC2)ccc1Nc1ncc(Br)c(Nc2ccccc2S(=O)(=O)N(C)C)n1` [Compound 80], the IC50 is below 200 nM.

Turning to `O=C1CCc2cc(Nc3ncc(C(F)(F)F)c(NCCO)n3)ccc2N1` [Compound 197], the IC50 is below 200 nM.

By IC50 is commonly meant the point on the concentration scale where inhibition reaches its midpoint.

(Values after patent publication US20230130766A1 (SALK INSTITUTE FOR BIOLOGICAL STUDIES, priority 2020, published 2023).)
